Experimental data as given in PMC9861744, “Polysulfone Membranes Doped with Human Neutrophil Elastase Inhibitors: Assessment of Bioactivity and Biocompatibility” (Membranes, 2023).

Target: T1, Human neutrophil elastase (HNE) (Homo sapiens, UniProt P08246)
T1 construct: gene ELANE
T1 sequence (P08246 30-247): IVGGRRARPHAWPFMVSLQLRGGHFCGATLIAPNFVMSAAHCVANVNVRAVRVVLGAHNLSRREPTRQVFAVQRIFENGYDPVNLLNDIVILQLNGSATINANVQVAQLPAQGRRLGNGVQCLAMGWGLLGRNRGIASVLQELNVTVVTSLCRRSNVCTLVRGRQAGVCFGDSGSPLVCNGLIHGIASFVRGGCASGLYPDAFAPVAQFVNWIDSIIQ
Assay: fluorometric HNE activity assay with MeO-Suc-Ala-Ala-Pro-Val-AMC, […] min preincubation, […] °C
Type: biochemical

Structure (SMILES): CCC1(CC)C(=O)N(c2ccc(C(=O)O)cc2)C1=O [D4L-2]
- IC50: 18 nM
